“And” between values parts separate entries of the source, which are not always exact repeats. Equal values may be shown once.
Test system: 171881-019-R-J1-PDC complex spheroid growth, % test/control
Test: Anticancer human tumor 171881-019-R-J1-PDC patient-derived invasive breast carcinoma cell line growth inhibition [Asc]
Settings: for viability, T/C: stronger effect = lower value
Experimental: Multicellular complex tumor spheroid response to apoptosis pathway targeting inhibitors Alrizomadlin, Pelcitoclax, and Dasminapant in combination with a variety of drugs and investigational agents in selected tumor cell lines
The MDM2 inhibitor alrizomadlin, the Bcl-2/Bcl-xL inhibitor pelcitoclax, and the IAPs inhibitor dasminapant were evaluated both individually and in combination with standard of care and investigational anticancer small molecules within a complex spheroid model of solid tumors. . Complex spheroids include a stromal component modeled by human endothelial cells (HUVEC) and fibroblasts modeled by human mesenchymal stem cells (MSCs). The concentration ranges selected for each drug and investigational agent were based upon clinically achievable concentrations if the clinical Cmax of the agent was known.
Compounds. The drugs and investigational agents: alrizomadlin (APG-115; NSC831270), pelcitoclax (APG-1252; NSC835773), dasminapant (APG-1387;NSC834197), TAK-243 (NSC785004), copanlisib (NSC809693), olaparib (NSC753686), talazoparib (NSC767125), cobimetinib (NSC 768068), eltanexor (KPT-8602, NSC 794443), abemaciclib (NSC 768073), sotorasib (NSC818433), adagrasib (NSC 831453), MRTX-1133 (NSC 836407), Iadademestat (ORY1001, NSC 806812), and RMC-4630 (NSC839698), were obtained from the NCI Developmental Therapeutics Program Chemical Repository. The FDA-approved anticancer drug set is available from the Developmental Therapeutics Program at https://dtp.cancer.gov/organization/dscb/obtaining/available plates.htm. […] The stock solutions were prepared in dimethyl sulfoxide (DMSO, Sigma-Aldrich, St. Louis, MO, cat. D2650) at 800-fold the tested concentration and stored at -70 degrees C prior to their use. All drugs and investigational agents were tested over a range starting from a high concentration at or near the clinical Cmax and decreasing in half-log increments. If the clinical Cmax for an agent had not been determined, the highest concentration tested was 10 microM.
The patient-derived cancer (PDC) cell lines include five colon adenocarcinomas: 186277-243-T-J2-PDC, 616215-338-R-J1-PDC, 439559-082-T-J2-PDC, 463943-066-T-J2-PDC, and 519858-162-T-J1-PDC; three pancreatic carcinomas: 323965-272-R-J2-PDC, 521955-158-R6-J3-PDC, and 521955-158-R2-J5-PDC; two uterine sarcomas: 327498-152-R-J2-PDC and 993429-296-R-J1-PDC; two rhabdomyosarcomas: 755483-174-R-J1-PDC and 772245-204-R-J1-PDC; two soft tissue sarcomas: 126254-015-R-J1-PDC and 494315-158-R-J1-PDC; two malignant fibrous histiocytomas: 317291-083-R-J1-PDC and 596521-263-R-J1-PDC; two breast carcinomas: 171881-019-R-J1-PDC and 885512-296-R-J2-PDC; and one ovarian carcinoma: 6556581-035-R-J-PDC were obtained from the NCI PDMR, (https://pdmr.cancer.gov). The established cell lines HSSY-2 synovial sarcoma (RRID:CVCL 8719), SYO-1 synovial sarcoma (RRID:CVCL_7146), MPNST malignant peripheral neural sheath tumor were obtained from the Sloan Kettering Institute. The following established cell lines were purchased from the American Type Culture Collection (ATCC, Manassas, VA), Sor the received from the NCI repository:, PANC-1 pancreatic carcinoma (CRL-1469, RRID:CVCL_0480), OVCAR-5 ovarian carcinoma (RRID:CVCL_1628), OVCAR-8 ovarian carcinoma (RRID:CVCL_1629), , MCF-7 breast carcinoma (CRL-12584, RRID:CVCL_0031), MDA-MB-231 breast carcinoma (CRL-12532, RRID:CVCL_0062), NCI-H1876 small cell lung carcinoma (CRL-5902, RRID:CVCL_1503), NCI-H510A small cell lung carcinoma (HTB-184, RRID:CVCL_1565), NCI-H1417 (CRL-5869, RRID:CVCL_1469), and NCI-H196 small cell lung carcinoma (CRL-5823, RRID:CVCL_1509). Dr. Peter Houghton (Greehey Children's Cancer Research Institute, University of Texas Health Science Center, San Antonio, TX) provided Rh-18 rhabdomyosarcoma (RRID:CVCL_1659). Pooled donor human umbilical vein endothelial cells (HUVEC, Lonza, cat. CC-2519) and human mesenchymal stem cells (hMSC, Lonza, cat. PT-2501) were purchased from Lonza (Walkersville, MD).
Cell Culture. […]

[1] = curve of first compound, second compound 0.01 µM
[2] = curve of first compound, second compound 0.0316 µM
[3] = curve of first compound, second compound 0.1 µM
[4] = curve of first compound, second compound 0.316 µM
[5] = curve of first compound, second compound 1 µM
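For viability, T/C in this document: spheroids exposed to compounds for 7 days.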

Q: For `C=C(F)C(=O)N1CCN(c2nc(OCC3CCCN3C)nc3c2CCN(c2cccc4cccc(Cl)c24)C3)CC1CC#N` (configuration not stated), which viability, T/C (compound 0.0316 µM) is on record?
A: 85.9% and 113% and 104%

Q: And the viability, T/C (compound 0.1 µM)?
A: 86% and 98.9% and 99.5%

Q: And the viability, T/C (compound 0.316 µM)?
A: 116% and 99.8% and 93.9%

Q: What about the viability, T/C (compound 1 µM) of the same compound?
A: 82.4% and 111% and 84.5%

Q: What about the viability, T/C (compound 3.16 µM) of the same compound?
A: 98.7% and 103% and 95.5%

Q: What about the viability, T/C (compound 10 µM) of the same compound?
A: 0.42% and 0.28% and 0.66%

Q: What about the IC50 (curve of compound) of the same compound?
A: 5430 nM and 5720 nM and 5490 nM

Q: What does the source list for `NC(=O)C(=Cn1cnc(-c2cc(C(F)(F)F)cc(C(F)(F)F)c2)n1)c1cncnc1` + CNC(C)C(=O)NC1CN(S(=O)(=O)c2cccc(S(=O)(=O)N3CCC4CCC(C(=O)NC(c5ccccc5)c5ccccc5)N4C(=O)C(NC(=O)C(C)NC)C3)c2)CCC2CCC(C(=O)NC(c3ccccc3)c3ccccc3)N2C1=O?
A: IC50 [1]: 63 nM; IC50 [2]: 66.3 nM; IC50 [3]: 61.9 nM; IC50 [4]: 58.6 nM; IC50 [5]: 61.6 nM; viability, T/C (second compound 0.01 µM, first compound 0.000949 µM): 118%; viability, T/C (second compound 0.01 µM, first compound 0.003 µM): 101%; viability, T/C (second compound 0.01 µM, first compound 0.00949 µM): 139%; viability, T/C (second compound 0.01 µM, first compound 0.03 µM): 109%; viability, T/C (second compound 0.01 µM, first compound 0.0949 µM): 17.5%; viability, T/C (second compound 0.01 µM, first compound 0.3 µM): 5.02%; viability, T/C (second compound 0.0316 µM, first compound 0.000949 µM): 109%; viability, T/C (second compound 0.0316 µM, first compound 0.003 µM): 111%; viability, T/C (second compound 0.0316 µM, first compound 0.00949 µM): 149%; viability, T/C (second compound 0.0316 µM, first compound 0.03 µM): 104%; viability, T/C (second compound 0.0316 µM, first compound 0.0949 µM): 17.8%; viability, T/C (second compound 0.0316 µM, first compound 0.3 µM): 5.09%; viability, T/C (second compound 0.1 µM, first compound 0.000949 µM): 97.9%; viability, T/C (second compound 0.1 µM, first compound 0.003 µM): 109%; viability, T/C (second compound 0.1 µM, first compound 0.00949 µM): 145%; viability, T/C (second compound 0.1 µM, first compound 0.03 µM): 111%; viability, T/C (second compound 0.1 µM, first compound 0.0949 µM): 14.1%; viability, T/C (second compound 0.1 µM, first compound 0.3 µM): 4.5%; viability, T/C (second compound 0.316 µM, first compound 0.000949 µM): 118%; viability, T/C (second compound 0.316 µM, first compound 0.003 µM): 108%; viability, T/C (second compound 0.316 µM, first compound 0.00949 µM): 149%; viability, T/C (second compound 0.316 µM, first compound 0.03 µM): 98.7%; viability, T/C (second compound 0.316 µM, first compound 0.0949 µM): 15.8%; viability, T/C (second compound 0.316 µM, first compound 0.3 µM): 4.13%; viability, T/C (second compound 1 µM, first compound 0.000949 µM): 110%; viability, T/C (second compound 1 µM, first compound 0.003 µM): 108%; viability, T/C (second compound 1 µM, first compound 0.00949 µM): 166%; viability, T/C (second compound 1 µM, first compound 0.03 µM): 108%; viability, T/C (second compound 1 µM, first compound 0.0949 µM): 15.6%; viability, T/C (second compound 1 µM, first compound 0.3 µM): 3.79%

Q: How did the IC50 [1] turn out when `COc1c(OCCCN2CCOCC2)ccc2c3n(c(=NC(=O)c4cnc(N)nc4)nc12)CCN3` + CNC(C)C(=O)NC1CN(S(=O)(=O)c2cccc(S(=O)(=O)N3CCC4CCC(C(=O)NC(c5ccccc5)c5ccccc5)N4C(=O)C(NC(=O)C(C)NC)C3)c2)CCC2CCC(C(=O)NC(c3ccccc3)c3ccccc3)N2C1=O was run?
A: 32.4 nM

Q: What about the IC50 [2] of the same compound?
A: 30.8 nM

Q: And the IC50 [3]?
A: 29.6 nM

Q: And the IC50 [4]?
A: 28.1 nM

Q: What about the IC50 [5] of the same compound?
A: 28.7 nM

Q: And the viability, T/C (second compound 0.01 µM, first compound 0.00316 µM)?
A: 196%

Q: And the viability, T/C (second compound 0.01 µM, first compound 0.01 µM)?
A: 133%

Q: And the viability, T/C (second compound 0.01 µM, first compound 0.0316 µM)?
A: 49.7%

Q: And the viability, T/C (second compound 0.01 µM, first compound 0.1 µM)?
A: 15.9%

Q: And the viability, T/C (second compound 0.01 µM, first compound 0.316 µM)?
A: 4.61%

Q: What about the viability, T/C (second compound 0.01 µM, first compound 1 µM) of the same compound?
A: 2.61%

Q: What about the viability, T/C (second compound 0.0316 µM, first compound 0.00316 µM) of the same compound?
A: 215%

Q: And the viability, T/C (second compound 0.0316 µM, first compound 0.01 µM)?
A: 137%

Q: And the viability, T/C (second compound 0.0316 µM, first compound 0.0316 µM)?
A: 46.5%

Q: And the viability, T/C (second compound 0.0316 µM, first compound 0.1 µM)?
A: 15.6%

Q: What about the viability, T/C (second compound 0.0316 µM, first compound 0.316 µM) of the same compound?
A: 4.08%

Q: And the viability, T/C (second compound 0.0316 µM, first compound 1 µM)?
A: 1.97%

Q: And the viability, T/C (second compound 0.1 µM, first compound 0.00316 µM)?
A: 203%

Q: What about the viability, T/C (second compound 0.1 µM, first compound 0.01 µM) of the same compound?
A: 135%

Q: And the viability, T/C (second compound 0.1 µM, first compound 0.0316 µM)?
A: 43.8%

Q: And the viability, T/C (second compound 0.1 µM, first compound 0.1 µM)?
A: 13.1%

Q: What about the viability, T/C (second compound 0.1 µM, first compound 0.316 µM) of the same compound?
A: 3.67%

Q: And the viability, T/C (second compound 0.1 µM, first compound 1 µM)?
A: 2.63%

Q: What about the viability, T/C (second compound 0.316 µM, first compound 0.00316 µM) of the same compound?
A: 182%

Q: What about the viability, T/C (second compound 0.316 µM, first compound 0.01 µM) of the same compound?
A: 122%

Q: What about the viability, T/C (second compound 0.316 µM, first compound 0.0316 µM) of the same compound?
A: 41%

Q: What about the viability, T/C (second compound 0.316 µM, first compound 0.1 µM) of the same compound?
A: 11.9%

Q: And the viability, T/C (second compound 0.316 µM, first compound 0.316 µM)?
A: 3.14%

Q: And the viability, T/C (second compound 0.316 µM, first compound 1 µM)?
A: 1.94%

Q: What about the viability, T/C (second compound 1 µM, first compound 0.00316 µM) of the same compound?
A: 210%

Q: And the viability, T/C (second compound 1 µM, first compound 0.01 µM)?
A: 125%

Q: What about the viability, T/C (second compound 1 µM, first compound 0.0316 µM) of the same compound?
A: 43.8%

Q: What about the viability, T/C (second compound 1 µM, first compound 0.1 µM) of the same compound?
A: 10.4%

Q: What about the viability, T/C (second compound 1 µM, first compound 0.316 µM) of the same compound?
A: 3.22%

Q: And the viability, T/C (second compound 1 µM, first compound 1 µM)?
A: 2.13%

Source: PubChem BioAssay AID1963428 (Molecular Pharmacology Branch, DTP, NCI, 2024)
